Data from US9145411B2, “Substituted amino-pyrimidine derivatives” (Asana Biosciences, LLC, priority 2012, dated 2015).

Key:
[1] = system: pS6RP; assay: In vivo PK/PD study, U87MG tumor xenograft, pS6RP; settings: U87MG tumor-bearing xenograft mice, 50 mg/kg po
Experimental: (§1) PC3 cells are cultured at 37° C. in a 5% CO2 incubator using Hams F12 K medium. Ten million (10^7) cells are injected subcutaneously to the right flank region of athymic male mice (Harlan, age: 6-7 weeks, weight: about 20 g). Tumor bearing mice are randomized when the tumor volume reaches about 250 mm^3 and three mice are used per each time point. Test compounds of formula (I) are typically formulated in 40% HPCD in 1×PBS, pH 7.4 or in 10% Ethanol/40% Solutol/50% 50 mM aq. methanesulfonic acid and dosed orally at 50 mg/kg single dose (dose volume—10 mL/kg). Plasma and tumor samples are collected at 0 (vehicle control animals), 1, 4 and 24 hours post dosing. Blood is drawn (retro orbital) to a tube containing 0.2% EDTA for plasma collection. […] Tumor and plasma drug concentrations are measured for PK analysis using LC-MS.
(§2) Snap frozen tumor samples are pulverized in a mortar (Belart) containing liquid nitrogen and tumor powder is stored at −80° C. until analysis. […] The detection for pAKT is based on chemiluminescence and pS6RP is based on absorbance. […]
(§3) In vivo pharmacokinetic/pharmacodynamic (PK/PD) studies were carried out in a similar manner using U87MG tumor cells (glioma cancer cell line with a PTEN null mutation) and the corresponding tumor-bearing xenograft mice, and compounds of the invention were determined to be active in this assay. […]

[2] = system: BT474 cells; assay: XTT assay for cell viability, BT474 cells; format: cell-based; settings: Homo sapiens, BT-474, read-out: inhibition of BT474 cell proliferation, IC50
Experimental: Using a commercial kit from Sigma Aldrich (Catalog #X34251) and following its protocol, PC3 cells in the log phase of growth were employed and seeded at an optimal density of 1000 cell/well on to 96 well plates and incubated for 24 hours followed by the addition of compounds of formula (I) in serial dilutions. Compound dilutions were made in DMSO. The cells were incubated with the compounds of formula (I) for 96 hours and XTT tetrazolium dye (Sigma, USA) was subsequently added and incubated at 37° C. After the color formation, absorbance was measured at 465 nm in a Spectramax® Gemini spectrophotometer. EC50 values were calculated using a sigmoidal dose response curve fit in GraphPad Prism® v5 software. The tested compounds of formula (I) which caused inhibition of PC3 cell proliferation as determined by this assay protocol are shown in Table 2.
XTT assays for cell viability were also determined in U87MG, BT474 cells and T47D cells, in a similar manner to the protocol described above. The compounds cause inhibition of U87MG, BT474 and T47D cell proliferation as determined by these assays. For example, the compounds of Examples 3 and 7 caused inhibition of U87MG, BT474 and T47D cell proliferation with IC50 values<600 nM.

[3] = system: pAKT (T308); assay: In vivo PK/PD study, U87MG tumor xenograft, pAKT (T308); settings: U87MG tumor-bearing xenograft mice, 50 mg/kg po
Experimental: as §1, §2, §3

[4] = molecular target: PI3 kinase isoform γ (Homo sapiens, UniProt P48736); assay: PI3 Kinase TR-FRET assay, isoform γ; format: biochemical; settings: read-out: inhibition of PI3 kinase isoform γ, IC50
Sequence of PI3 kinase isoform γ (P48736 whole entry, the tested form may be a part, canonical isoform): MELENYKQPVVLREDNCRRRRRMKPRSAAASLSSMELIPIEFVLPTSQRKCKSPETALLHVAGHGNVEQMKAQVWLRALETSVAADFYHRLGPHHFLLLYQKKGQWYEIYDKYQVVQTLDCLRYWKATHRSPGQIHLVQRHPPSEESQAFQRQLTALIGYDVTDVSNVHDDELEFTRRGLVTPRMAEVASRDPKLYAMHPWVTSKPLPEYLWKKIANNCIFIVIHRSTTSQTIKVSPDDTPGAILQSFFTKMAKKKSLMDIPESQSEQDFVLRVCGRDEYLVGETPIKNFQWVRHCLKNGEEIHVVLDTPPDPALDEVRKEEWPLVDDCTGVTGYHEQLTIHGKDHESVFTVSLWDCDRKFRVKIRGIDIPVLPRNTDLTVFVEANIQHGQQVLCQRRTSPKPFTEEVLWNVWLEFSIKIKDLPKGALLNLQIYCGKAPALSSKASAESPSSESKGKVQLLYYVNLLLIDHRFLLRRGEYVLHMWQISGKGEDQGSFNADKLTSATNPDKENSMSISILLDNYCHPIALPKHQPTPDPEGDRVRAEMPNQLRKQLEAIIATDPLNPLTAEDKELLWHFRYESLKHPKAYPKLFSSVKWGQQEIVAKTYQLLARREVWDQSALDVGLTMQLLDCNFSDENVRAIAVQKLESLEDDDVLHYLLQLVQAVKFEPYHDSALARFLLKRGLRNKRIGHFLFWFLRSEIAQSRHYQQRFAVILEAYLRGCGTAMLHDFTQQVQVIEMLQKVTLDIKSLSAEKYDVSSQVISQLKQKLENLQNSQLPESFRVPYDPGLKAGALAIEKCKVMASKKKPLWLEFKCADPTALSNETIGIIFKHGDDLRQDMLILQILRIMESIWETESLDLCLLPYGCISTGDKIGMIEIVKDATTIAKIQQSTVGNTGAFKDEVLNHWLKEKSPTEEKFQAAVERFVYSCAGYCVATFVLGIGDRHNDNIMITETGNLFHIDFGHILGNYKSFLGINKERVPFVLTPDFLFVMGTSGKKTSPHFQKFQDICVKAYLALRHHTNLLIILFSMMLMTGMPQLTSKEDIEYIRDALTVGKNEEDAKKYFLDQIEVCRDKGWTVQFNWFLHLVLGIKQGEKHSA
Experimental: The ability of compounds of the invention to inhibit PI3K activity was determined in a homogeneous TR-FRET assay using a PI3K assay kit (Millipore, USA; cat #33-016) according to manufacturer's instructions. PI3-Kinases (isoforms α, β, γ and δ) catalyze the phosphorylation of phosphatidylinositol, PIP2 to PIP3 in the presence of ATP and Mg^2+. The PIP3 product is detected by displacement of biotin-PIP3 from an energy transfer complex consisting of Europium labeled anti-GST monoclonal antibody, a GST-tagged PH domain, biotinylated PIP3 and Streptavidin-APC. Excitation of Europium in the complex results in an energy transfer to the APC and a fluorescence emission at 665 nm. The PIP3 product displaces biotin-PIP3 from the complex resulting in a loss of energy transfer and thus a decrease in signal.
To test for the ability of compounds to inhibit the activity of PI3Kα (wild-type), exemplary compounds of formula (I) were dissolved in DMSO and directly distributed into 384-well plates at a volume of 0.5 μL. 14.5 μL of P110/P85α/PIP2 mixture in buffer (obtained from the Millipore kit) containing MgCl2 (40 mM) and DTT (5 mM) was added to compound wells and incubated for 60 minutes at room temperature. P110/P85α was expressed in SF9 insect cells and purified nickel column extraction. Five ng of wild-type P110/P85α was used in the assay. The kinase reaction was started by the addition of ATP. The assay concentrations of both PIP2 and ATP were 10 μM. The reaction mixture was incubated for 30 minutes at room temperature and was terminated by the addition of stop mix and detection mix. Fluorescence was measured at 615 and 665 nm upon excitation at 340 nm in a Victor™ V5 fluorometer (Perkin Elmer, USA). The fluorescence emission ratio at 665 to 615 nm, proportional to the kinase activity, was plotted against the compound concentration to generate dose-response curves and IC50 values were determined using GraphPad Prism® 5 software.
The activity of PI3 kinase isoforms β, γ and δ were assayed in a similar manner to the assay protocol described above for PI3Kα, by substituting the appropriate p110/p85 isoform for the p110α/p85α. Compounds of formula (I) caused inhibition of PI3 kinase isoforms β, γ and δ as determined by these assays. For example, the compounds of Examples 3 and 21 each caused inhibition of PI3 kinase isoform β with IC50 values<500 nM. The compounds of Examples 3, 7, 21, 47, 48 and 49 each caused inhibition of PI3 kinase isoform γ with IC50 values<500 nM. The compounds of Example 3, 7, 47, 48, and 49 caused inhibition of PI3 kinase isoform δ with IC50 values<1 μM.

Structure (SMILES)	suppression of pS6RP [1]	IC50 [2] [nM]	suppression of pAKT (T308) [3]	IC50 [4] [nM]
CC(=O)Nc1cccc(-c2cnc3c(N4CCOCC4)nc(-c4cnc(N)nc4)nc3c2)c1 [Example 3, N-(3-(2-(2-Aminopyrimidin-5-yl)-4-morpholinopyrido[3,2-d]pyrimidin-7-yl)-phenyl)acetamide]	suppression	< 600	suppression	< 500
N#CC1(C(=O)Nc2cccc(-c3cnc4c(N5CCOCC5)nc(-c5cnc(N)nc5)nc4c3)c2)CC1 [Example 61, N-(3-(2-(2-amino-pyrimidin-5-yl)-4-morpholinopyrido[3,2-d]pyrimidin-7-yl)phenyl)-1-cyanocyclopropane-carboxamide]	suppression		suppression	
Nc1ncc(-c2nc(N3CCOCC3)c3ncc(-c4cccc(NC(=O)C5CC5)c4)cc3n2)cn1 [Example 7, N-(3-(2-(2-Aminopyrimidin-5-yl)-4-morpholinopyrido[3,2-d]pyrimidin-7-yl)-phenyl)cyclopropanecarboxamide]		< 600		< 500
